The test system of assay [1] is rat with scopolamine-induced cognitive impairment. Briefly: Novel object recognition test using rats with scopolamine-induced cognitive impairment. The format is in vivo. The conditions noted are these: for percentage of exploration of the novel object during T2: scopolamine 0.7 mg/kg s.c., male Long Evans rats, mean ± standard error. On the procedure:
A novel object recognition test using rats with scopolamine-induced cognitive impairment was performed to confirm the effect of improving cognitive impairment induced by an acetylcholine nerve disorder. The novel object recognition test is a test system for assessing cognitive function based on the spontaneous behavioral characteristic of a rodent in which the rodent spends more time exploring a novel object than a familiar object. The test method described in Ennacer etc. Behavioural Brain Research, 31 (1988) pp. 47-51 was partially modified and performed.
Six-week-old male Long Evans rats (the Institute for Animal Reproduction) were subjected to the test. For two days before the test, a process for habituating the rat to the experimental procedure was performed once daily. In the habituation process, administration of a vehicle to the rat was performed, and subsequently, the rat was placed in an empty test apparatus (40 cm×30 cm×H 45 cm) and allowed to explore for 3 minutes, was transferred into a waiting chamber (13 cm×30 cm×H 45 cm) for about 1 minute, and then was returned into the empty test apparatus again and allowed to stay for 5 minutes.
On the day of the test, an acquisition trial (T1) was performed. Compound (I) was administered orally by using a solution of 0.5% methylcellulose in 0.01 M hydrochloric acid as a vehicle 2 hours before T1. Scopolamine (Wako Pure Chemical Industries, Ltd.) was administered subcutaneously by using a saline as a vehicle at a dose of 0.7 mg/kg 30 minutes before T1. […] The behaviors of the rat during T1 and T2 were recorded by a digital video camera and the total exploration time for each object was measured manually using a stopwatch. […]
In the novel object recognition test, a percentage of exploration of the novel object during T2 is considered as an amnesia index that reflects discrimination between the familiar object and the novel object. The percentage of exploration of the novel object was calculated in accordance with the following equation. […]
The results were expressed as mean±standard error. […]

In assay [2] the target is phosphodiesterase 9 (PDE9) (Homo sapiens, UniProt O76083). The conditions noted are these: from Patent Literature 1; cited from earlier work.
Chain of phosphodiesterase 9 (PDE9) (O76083 whole entry): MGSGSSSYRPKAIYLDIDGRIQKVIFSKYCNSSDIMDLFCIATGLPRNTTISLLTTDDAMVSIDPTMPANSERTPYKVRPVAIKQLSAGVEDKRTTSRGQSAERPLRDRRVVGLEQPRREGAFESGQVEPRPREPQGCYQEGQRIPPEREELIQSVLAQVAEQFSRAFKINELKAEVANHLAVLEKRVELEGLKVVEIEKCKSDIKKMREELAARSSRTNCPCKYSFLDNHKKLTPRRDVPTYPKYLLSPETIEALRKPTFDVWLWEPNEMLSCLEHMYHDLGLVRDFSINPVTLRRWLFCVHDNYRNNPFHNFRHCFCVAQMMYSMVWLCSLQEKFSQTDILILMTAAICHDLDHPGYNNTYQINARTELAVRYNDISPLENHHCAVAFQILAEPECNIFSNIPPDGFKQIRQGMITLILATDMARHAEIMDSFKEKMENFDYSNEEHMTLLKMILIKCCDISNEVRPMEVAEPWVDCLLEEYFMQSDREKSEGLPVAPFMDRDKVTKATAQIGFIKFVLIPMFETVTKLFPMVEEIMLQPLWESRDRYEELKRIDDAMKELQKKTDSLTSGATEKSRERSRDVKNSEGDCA

Consider `COc1ncc(C)c(-c2ccc3c(c2)[nH]c(=O)c2cnn([C@H]4CCOC4)c23)c1C` [Compound (I), (S)-7-(2-methoxy-3,5-dimethylpyridin-4-yl)-1-(tetrahydrofuran-3-yl)-1H-pyrazolo[4,3-c]quinolin-4(5H)-one], for which the figures for the “percentage of exploration of the novel object during T2” value in assay [1] (3.3 mg/kg orally 2 hours before T1) and in assay [1] (10 mg/kg orally 2 hours before T1) were 68.5 ± 2.0 % and 68.5 ± 1.6 %, respectively. Also, the “effect of improving the percentage of exploration of the novel object” value in assay [1] (at 3.3 mg/kg and 10 mg/kg, versus disease control group, Dunnett's test, p<0.05) is listed as “significant effect of improving the percentage of exploration of the novel object”. Further, in assay [2], the PDE9 inhibitory action result is “exhibits a PDE9 inhibitory action”.

Values taken from patent US11311530B2, “Lewy body disease therapeutic agent containing pyrazoloquinoline derivative” (Eisai R&D Management Co., Ltd., priority 2017, dated 2022).
